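Results reflect a 48-hour exposure of cells in 96-well plates to compound at five concentrations. GI50 marks 50% less growth. TGI marks complete inhibition of growth.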
Columns and labels:
Test in all cases: inhibition of tumour cell growth, NCI panel, 48 h
RXF 393 renal = system: RXF 393 renal
OVCAR-4 ovarian = system: OVCAR-4 ovarian
K-562 leukemia = system: K-562 leukemia
HCT-116 colon = system: HCT-116 colon
HCT-15 colon = system: HCT-15 colon
NCI-H226 lung = system: NCI-H226 lung
NCI-H522 lung = system: NCI-H522 lung
ACHN renal = system: ACHN renal
SF-268 CNS = system: SF-268 CNS
RPMI-8226 leukemia = system: RPMI-8226 leukemia

Row | Structure (SMILES) | GI50 (RXF 393 renal) [µM] | TGI (RXF 393 renal) [µM] | GI50 (OVCAR-4 ovarian) [µM] | TGI (OVCAR-4 ovarian) [µM] | GI50 (K-562 leukemia) [µM] | TGI (K-562 leukemia) [µM] | GI50 (HCT-116 colon) [µM] | TGI (HCT-116 colon) [µM] | GI50 (HCT-15 colon) [µM] | TGI (HCT-15 colon) [µM] | GI50 (NCI-H226 lung) [µM] | TGI (NCI-H226 lung) [µM] | GI50 (NCI-H522 lung) [µM] | TGI (NCI-H522 lung) [µM] | GI50 (ACHN renal) [µM] | TGI (ACHN renal) [µM] | GI50 (SF-268 CNS) [µM] | TGI (SF-268 CNS) [µM] | GI50 (RPMI-8226 leukemia) [µM] | TGI (RPMI-8226 leukemia) [µM]
1 | COc1cc(Nc2nc(N[C@H]3CCCC[C@@H]3N)nc3cc[nH]c(=O)c23)cc(OC)c1 | 0.403 | 2.76 | 5.93 | 20 | 2.47 | 10.3 | 1.03 | 2.27 | 3.97 | 18.3 | 1.88 | 12.4 | 1.45 | 4.55 | 1.38 | 19.9 | 2.17 | 17.7 | 2.18 | 12.1
2 | CN(C)c1ccc2cc(-c3ccccc3F)c(N)nc2c1 | 2.53 | 10.8 | 3.83 | 36 | 0.393 | 16.6 | 0.454 | 11 | 0.469 | 13.2 | 3.61 | 20.3 | 1.35 | 5.87 | 3.8 | 17.3 | 3.89 | 19.8 | 2.83 | 17.7
3 | CCC12CCCC(=O)N1C(CO)C(c1ccccc1)O2 (stereo not given) |  | > 100 |  | > 100 |  | > 100 |  | > 100 |  | > 100 |  |  |  |  |  | > 100 |  | > 100 |  | > 100
4 | CO/N=C(\C)c1ccc(Nc2cc(-c3ccccc3)nc3c(O)cccc23)cc1 | 14.2 | 30 | 19.9 | 50.7 | 11.6 | 60.4 | 22.2 | 52.7 | 16.2 | 32.5 | 22.4 | 78.4 | 20.6 | 62.1 | 17.8 | 34 |  |  | 15.8 | 37
5 | CC(=O)Oc1ccc(O)c(O)c1C/C=C(\C)CC/C=C(\C)CC/C=C(\C)CCC=C(C)C |  | 2.47 |  | 1.72 |  |  |  |  |  |  |  | 2.27 |  | 6.84 |  | 0.823 |  | 2.18 |  | 
6 | CC(=O)NC1=C(C)C(=O)c2c(nc3n2CCC3O)C1=N (stereo not given) |  |  |  | 14.6 |  | > 100 |  | 6.88 |  | 41.1 |  | 33.1 |  | 19.6 |  | 37.7 |  | 22.3 |  | > 100
7 | O=NNc1nc(-c2cccnc2)nc2ccccc12 |  |  |  | > 100 |  | > 100 |  | > 100 |  | > 100 |  | > 100 |  | > 100 |  | > 100 |  | > 100 |  | 
8 | C[C@@H]1CN(CC(=O)N2CC(C)(C)c3nc(CO)c(Cc4ccc(F)cc4)cc32)[C@@H](CN2CCOC[C@H]2C)CN1 |  |  | 20.6 | > 100 |  |  | 36.9 | > 100 | 31.4 | > 100 | > 100 | > 100 | 21.8 | 71.6 | > 100 | > 100 | 64.1 | > 100 | 21.9 | 48

Source: PubChem BioAssay (NCI)
